Marks after values point to notes of the source that are not given here. Where no end group is shown, it is not given here.
Key:
[1] = test system: Patients with BPH and who optionally also had LUTS; assay: Clinical trial: inability to provide urine volume >125 mL (Qmax unable / Qmax failure) after intraprostatic injection; format: in vivo, human
Method: (§1) Clinical trials were conducted on numerous individuals having BPH, some of whom also had LUTS. All protocols were done in accordance with applicable regulations, and carried out by physicians.
Patients with BPH and who optionally also had LUTS were given an intraprostatic injection of either a) FT 2.5 mg in phosphate buffered saline pH 7.2 (“PBS”) or b) PBS alone, under double-blind conditions by a urologist in an office setting under ultrasound guidance. Patients were followed for 12 months to several years with regular physical examinations, laboratory tests, and evaluations of symptoms. Urinary peak flow (Qmax) was measured by flow meter readings using standard techniques, at baseline, and at 12 months in subjects who were able to urinate adequate volume of urine (>125 mL) to provide a valid test. Subjects who were unable to void >=125 mL despite drinking as much water as they wanted were classified as “Qmax unable.” The numbers of subjects who became Qmax unable was compared in different groups.

[2] = test system: Patients with BPH and who optionally also had LUTS; assay: Clinical trial: deterioration/worsening in urinary peak flow rate (Qmax worsening) after intraprostatic injection; format: in vivo, human
Method: as §1
Patients with BPH and who optionally also had LUTS were given an intraprostatic injection of either a) FT 2.5 mg in phosphate buffered saline pH 7.2 (“PBS”) or b) PBS alone, under double-blind conditions by a urologist in an office setting under ultrasound guidance. Patients were followed for 12 months to several years with regular physical examinations, laboratory tests, and evaluations of symptoms. Urinary peak flow (Qmax) was measured by flow meter readings using standard techniques, at 3 months and at 12 months.

[3] = test system: Patients with BPH and who optionally also had LUTS; assay: Clinical trial: nocturia frequency by patient questionnaires after intraprostatic injection; format: in vivo, human
Source text: Improvements in obstructive and irritative symptoms can be measured in accordance with techniques known in the art. For example, uroflowmeters are known to differentiate urine weight change to provide a continuous plot of the flow rate vs. time that is smoothed by internal electronic filtering to permit precise (±5%) measurement of Qmax. Schafer W, et al. “Good urodynamic practices: Uroflowmetry, filling cystometry and pressure-flow studies,” Neurourol Urodynamics, Vol. 21, pp. 261-74 (2002). Nocturia can be measured in a variety of manners, most of which involve patients completing a questionnaire before and after treatment to establish a baseline, and then determine the difference (improvement, lack of improvement, worsening, etc.) from baseline after treatment. Exemplary questionnaires include evaluating the scores from the nocturia question included in the International Prostate Symptom Score (IPSS), assessing the number of nocturnal voids (Boyarsky symptom score), the Madsen-Iversen Symptom Score, and the ICSmale questionnaire. See, e.g., Chartier-Kastler, et al., “The Measurement of Nocturia and its Impact on Quality of Sleep and Quality of Life in LUTS/BPH,” Eur. Urol. Supp., Vol. 5, pp. 3-11 (2006). A preferred method of measuring nocturia is by determining the mean change from baseline of the nocturia question in the IPSS (question 7). Question 7 solicits from the patient how many times over the past month they had to get up to urinate from the time they went to bed until the time they got up—the score ranging from none (score 0) to 5 or more times (score 5).
as §1
Patients with BPH and who optionally also had LUTS were given an intraprostatic injection of either a FT2.5 in 10 mL phosphate buffered saline pH 7.2 (“PBS”) or PBS 10 mL alone, under double-blind conditions by a urologist in an office setting under ultrasound guidance. Patients were followed for 12 months with regular physical examinations, laboratory tests, and evaluations of symptoms. The mean frequency of nocturia in the prior month was recorded in patient questionnaires.

[4] = test system: prostate glandular epithelial cells; assay: In vitro tissue culture genetic array: apoptosis pathway activation; format: cell-based
Source text: FT is a new molecular entity which in vitro stimulates caspase pathways (activation of caspases 7, 8, and 10, caspase recruitment domains 6, 11, and 14, and DIABLO), tumor necrosis factor pathways (activation of TNF1, TNFSF6, TNFSF8, TNFSF9, CD70 ligands, and TNFRSF19L, TNFRSF25, TRAF2, TRAF3, TRAF4, TRAF6 receptors), and BCL pathways (activation of BIK, HRK, BCL2L10 and BCL3) in prostate glandular epithelial cells, based on tissue culture genetic array data. FT selectively causes loss of cell membrane integrity, mitochondrial metabolic arrest, depletion of RNA, DNA lysis and aggregation, and cell fragmentation and cell loss. The apoptotic process leads to typical ultrastructural progressive changes of membranous disruption and swelling, progressively deepening nuclear invaginations with eventual membranous bleb formations and cell death and fragmentation into apoptotic bodies. Histologically, typical apoptotic changes with positive immunohistochemical staining of markers for apoptosis are found throughout the injected areas for up to several weeks after treatment.

[5] = about 3 months after single dose of FT ≥2.5 mg, vs control

## Fexapotide Triflutate (IDQQVLSRIKLEIKRCL; also: trifluoroacetate salt) [FT]
[1]; 12 months after single intraprostatic dose of 2.5 mg FT, placebo 5.9%
  % of Qmax Unable at 12 months (% of patients with inability to provide urine volume >125 mL): 4.5%
[1]; Qmax at baseline and 12 months, FT 2.5 mg vs PBS
  mean flow rate improvements, FT treated patients versus controls: similar
[1]; [5]
  percent decrease in patients unable to provide urine volume ≥125 ml compared to control: ≈ 10%
[1]; about 3 months after single dose of FT ≥2.5 mg, control 4.3%
  percentage of patients unable to provide a urine volume of ≥125 ml: 3.9%
[2]; 12 months after single intraprostatic dose of 2.5 mg FT, placebo 42%, p = 0.0239
  % of Qmax Worsening at 12 months: 35%
[2]; Qmax at 3 months and 12 months, FT 2.5 mg vs PBS
  flow rate mean improvements, FT treated group versus control group: similar
[2]; [5]
  percent decrease in patients with deterioration/worsening in peak flow rate compared to control: ≈ 5.1%
[2]; about 3 months after single dose of FT ≥2.5 mg, control 37%
  percentage of patients who showed deterioration/worsening in peak flow rate: 35.2%
[3]; 12 months after single dose of 2.5 mg FT, vs vehicle control
  improvement in percentage of patients with Nocturia frequency change >0 from baseline to 12 months compared to control: about 36%
[3]; 12 months follow-up, FT 2.5 mg vs PBS
  mean improvement in frequency of nocturia per night, FT treated subjects versus controls: similar
[3]; after 3 months, single dose of FT 2.5 mg, not significantly better than control
  improvement in mean nocturia frequency points improvement from baseline versus control: ~8%
[3]; single intraprostatic dose of 2.5 mg FT, placebo 19.19%, p = 0.0425 vs. Vehicle alone
  % of Patients With Nocturia Frequency Change >0 from Baseline to 12 Months: 14.15%*
[4]
  BCL pathways (activation of BIK, HRK, BCL2L10 and BCL3): stimulates
  caspase pathways (activation of caspases 7, 8, and 10, caspase recruitment domains 6, 11, and 14, and DIABLO): stimulates
  tumor necrosis factor pathways (activation of TNF1, TNFSF6, TNFSF8, TNFSF9, CD70 ligands, TNFRSF19L, TNFRSF25, TRAF2, TRAF3, TRAF4, TRAF6 receptors): stimulates

Source: patent US20200360465A1, “METHOD OF TREATING LOWER URINARY TRACT SYMPTOMS WITH FEXAPOTIDE TRIFLUTATE” (Nymox Corporation, priority 2019, published 2020)
